In PubChem BioAssay (NCI) one finds TGI and GI50 data, which are given here for 29 molecules.

Common to all, as to test: NCI anticancer screen, dose series, 48 h
In experiment [1] the test system is HOP-62 NSCLC.
The test system of experiment [2] is UACC-62 melanoma.
The subject of experiment [3] is HOP-92 NSCLC.
The test system of experiment [4] is U251 CNS.
For experiment [5], the system named is T-47D breast.
The subject of experiment [6] is 786-0 renal.
Experiment [7] concerns IGROV1 ovarian.
Experiment [8] relates to MOLT-4 leukemia.
The subject of experiment [9] is HCT-15 colon.
Experiment [10] concerns RPMI-8226 leukemia.

≈ marks a conversion by molar mass, not a printed value. Where “and” joins values, the source holds several entries; their conditions need not be identical. Equal values may be shown once.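 Tested at 5 concentrations; 48 h exposure; 96-well plates; endpoints linearly interpolated, else capped at highest concentration. GI50: concentration for 50% inhibition of growth. Definition used: TGI = concentration required for complete inhibition of growth.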

Regarding `Cn1c(=O)c2[nH]c(CCCCC(=O)O)nc2n(C)c1=O`, the TGI in experiment [1], in experiment [2], in experiment [3], in experiment [4], in experiment [5] and in experiment [6] was greater than 100 µM in each case. Besides, the TGI in experiment [7], in experiment [8] and in experiment [9] was greater than 100 µM each time.
As to `N#Cc1nc(C2=C(Cl)c3ccccc3OC2)[nH]c1C#N`, the TGI is 64.3 µM in [2]; 31 µM in [3]; 75.9 µM in [4]; greater than 100 µM in [6]; greater than 100 µM in experiment [7]; 61 µM in experiment [10]. Besides, the values for the TGI in experiment [8] and in experiment [9] were 40.5 µM and greater than 100 µM, respectively.
As to `Cc1ccc(C)c(COCCOCn2ccc(N)nc2=O)c1`, the TGI in experiment [1], in experiment [2], in experiment [3], in experiment [4], in experiment [5] and in experiment [6] was greater than 100 µM throughout. Besides, the TGI in [7], in experiment [8] and in [9] was greater than 100 µM throughout.
With `COC1(OC)CC(CO)(CNc2nc(N)nc(Cl)c2/C=N\O)C1`, the TGI in experiment [1] is greater than 100 µM; in [3] it was 89.2 µM; in experiment [4] it was greater than 100 µM; in [6], greater than 100 µM; in [7], greater than 100 µM; in experiment [10] it was greater than 100 µM. For the same molecule, the figures for the TGI in experiment [8] and in experiment [9] were 85.4 µM and greater than 100 µM, respectively.
Regarding `NNc1nncc2n[nH]nc12`, the TGI in experiment [1], in [2], in [4], in [5], in [6] and in [7] was greater than 100 µM in each case. In addition, the TGI in experiment [10], in [8] and in experiment [9] was greater than 100 µM in each case.
`Cc1ccc(S(=O)(=O)OC(c2ccc(Cl)cc2Cl)C2OC(=O)c3ccccc32)cc1` (stereo not drawn): the TGI in experiment [1], in experiment [2], in experiment [4], in experiment [6], in [7] and in experiment [10] was greater than 100 µM in each case. The TGI in experiment [8] and in experiment [9] was greater than 100 µM in each case.
For the molecule `C=C1CC[C@H](O)C(C)(C)[C@@H]1CC/C(C)=C/CC/C=C(\C)CC/C=C(\C)CCC=C(C)C`, the TGI in experiment [1] is greater than 100 µM; in experiment [2] it was greater than 100 µM; in experiment [3] it was greater than 100 µM; in [4], greater than 100 µM; in experiment [5], 59.3 µM; in experiment [6], greater than 100 µM. In addition, the TGI in experiment [7], in experiment [8] and in [9] was greater than 100 µM throughout.
For `CSC1=N/C(=C\c2ccccc2)C(=O)N1CN1CCCCC1`, the TGI in experiment [1], in experiment [2], in [3], in experiment [4], in experiment [6] and in experiment [7] was greater than 100 µM in each case. Further, the TGI in [10] and in experiment [8] was greater than 100 µM in each case.
Regarding `CCn1c(SCC(=O)NNC(=S)Nc2ccc(C)cc2)nc2ccccc2c1=O`, the TGI in experiment [1], in experiment [2], in experiment [4], in experiment [5], in [6] and in [7] was greater than 100 µM in each case. For the same molecule, the TGI in [10], in [8] and in [9] was greater than 100 µM throughout.
Consider `O=c1[nH]c(Nc2nc3ccccc3[nH]2)nc2c1CCC2`, for which the TGI in experiment [1], in [2], in [3], in experiment [4], in experiment [6] and in experiment [7] was greater than 100 µM in each case. In addition, in [9], the TGI was greater than 100 µM.
Consider `CCOC(=O)C1(C(=O)OCC)C[C@H](C)[C@](C)(O)C1`, for which the TGI in experiment [1], in [2], in experiment [3], in experiment [4], in experiment [6] and in experiment [7] was greater than 100 µM throughout. Also, the TGI in experiment [10], in [8] and in experiment [9] was greater than 100 µM each time.
In the case of `C=C(C)C(=O)OC1CCC2(C)C(CCC3C2CCC2(C)C(c4ccc(=O)oc4)CC4OC432)C1` (stereo not drawn), the TGI was 10.5 µM in experiment [1]; 17.2 µM in experiment [2]; 9.96 µM in experiment [3]; 30.3 µM in experiment [4]; 20.5 µM in experiment [7]; 20.1 µM in experiment [10]. The TGI in experiment [8] worked out at 15.5 µM; in experiment [9] it was 32 µM.
As to `Cc1nn(C(=O)Cc2ccccc2)c2c1C(c1ccc(N(C)C)cc1)SC(N)=N2` (stereo not drawn), the TGI in experiment [1], in experiment [2], in experiment [5], in experiment [6], in experiment [7] and in experiment [10] was greater than 100 µM throughout. Further, the TGI in [8] and in experiment [9] was greater than 100 µM each time.
In the case of `COc1cc(OC)c2c(=O)c(OC)c(-c3ccc4c(c3)OCO4)oc2c1`, the TGI is 74.6 µM in experiment [1]; 72 µM in experiment [2]; 30.3 µM in experiment [4]; greater than 100 µM in [5]; 79.3 µM in experiment [6]; greater than 100 µM in experiment [7]. Further, the TGI in experiment [8] and in experiment [9] was greater than 100 µM each time.
For the molecule `O=C1NN(C2=NNC3(C(=O)N2)c2ccccc2-c2ccccc23)C(c2ccccc2)=N/C1=C/c1ccc(O)cc1`, the GI50 is 39.9 µg/mL in experiment [1]; 33.5 µg/mL in [2]; 104 µg/mL in experiment [4]; 27 µg/mL in [5]; 15 µg/mL (≈ 28.5 µM) in experiment [7]; 70.6 µg/mL in experiment [10]. The GI50 is 15 µg/mL in experiment [8] and 49.6 µg/mL in experiment [9]. In addition, the TGI in experiment [1] is 138 µg/mL; in experiment [2], 92.2 µg/mL; in [4] it was greater than 150 µg/mL; in experiment [5], greater than 150 µg/mL; in experiment [7] it was 15 µg/mL; in experiment [10], greater than 150 µg/mL. Further, the TGI in [8] is 15 µg/mL; in experiment [9], greater than 150 µg/mL.
As to `Clc1ccccc1/C=C/c1cscn1`, the TGI in [1], in experiment [2], in [4], in experiment [10], in experiment [8] and in experiment [9] was greater than 100 µM in each case.
For the molecule `COc1cc2c(cc1OC)CCc1cc(OC)c(OC)cc1CC2`, the TGI in experiment [1], in experiment [2], in [3], in experiment [4], in [5] and in [6] was greater than 100 µM throughout. Besides, the TGI in [7], in [8] and in [9] was greater than 100 µM throughout.
As to `O=C1N[C@@H](c2c[nH]c3cc(Br)ccc23)C(=O)N[C@H]1c1c[nH]c2cc(Br)ccc12`, the TGI in experiment [1] is greater than 100 µM; in experiment [2], greater than 100 µM; in experiment [3], greater than 100 µM; in experiment [4], 60.1 µM; in [5], greater than 100 µM; in experiment [6], greater than 100 µM. Also, the TGI in experiment [7], in experiment [10] and in experiment [9] was greater than 100 µM each time.
With `O=C1C=CC=C/C1=C1\N=C(c2ccccc2OCC(=O)c2ccc(Br)cc2)SS1`, the TGI is 24 µM in experiment [1]; greater than 100 µM in [2]; greater than 100 µM in experiment [3]; greater than 100 µM in [4]; greater than 100 µM in [5]; greater than 100 µM in experiment [6]. Besides, the TGI was 71.3 µM in experiment [7], greater than 100 µM in experiment [10] and greater than 100 µM in experiment [9].
Consider `CCc1c(C)c(C#N)c(=S)n(C2OC(COC(C)=O)C(OC(C)=O)C(OC(C)=O)C2OC(C)=O)c1C` (stereo not drawn), for which the GI50 in [1] was 45.4 µM and 5.33 µM; in experiment [2], > 100 µM and 47.6 µM; in [4], > 100 µM and 26.9 µM. The TGI in experiment [1] is > 100 µM and 21.8 µM; in experiment [2] it was greater than 100 µM; in experiment [4], greater than 100 µM; in experiment [5], greater than 100 µM; in experiment [6], > 100 µM and 41.5 µM; in [7], greater than 100 µM. For the same molecule, the TGI in experiment [8] and in experiment [9] was greater than 100 µM in each case.
On to `CC(=O)OC1(C)C=CC(=O)C=C1`, for which the TGI is 75.7 µM in [1]; 35.7 µM in [2]; greater than 100 µM in [3]; 28.7 µM in [4]; 47.9 µM in [6]; 31.6 µM in experiment [7]. Further, the TGI in experiment [10], in experiment [8] and in [9] was greater than 100 µM each time.
In the case of `CCOC(=O)C(O)(NC(=O)c1ccc(F)cc1)C(F)(F)F` (stereo not drawn), the TGI in [1], in [2], in experiment [3], in experiment [4], in [5] and in experiment [7] was greater than 100 µM in each case. Moreover, the TGI in experiment [10], in experiment [8] and in experiment [9] was greater than 100 µM each time.
Turning to `CN(/N=C/c1ccc(OCc2cccc(COc3ccc(C=O)cc3)n2)cc1)c1cnn(-c2ccc(Cl)cc2Cl)c(=O)c1Cl`, the TGI in experiment [1], in experiment [2], in [4], in experiment [5], in experiment [6] and in experiment [7] was greater than 100 µM in each case. Besides, the TGI in [10], in experiment [8] and in experiment [9] was greater than 100 µM throughout.
Turning to `COc1cc(/C=C2\CCCC3=C2NC(C)=NC3c2cc(OC)c(OC)c(OC)c2)cc(OC)c1OC` (stereo not drawn), the GI50 in [5] was 3.25 µM; in [10], 0.536 µM; in [8], 1.93 µM; in [9], 1.03 µM. The TGI in experiment [5] was greater than 100 µM; in experiment [10], 4.67 µM; in experiment [8] it was greater than 100 µM; in experiment [9] it was greater than 100 µM.
For `O=C(O)Cc1cccc2c1OC(c1ccccc1)C(Cl)(C(=O)c1ccccc1)C2=O` (stereo not drawn), the TGI in [1] came to 43.6 µM; in experiment [4] it was 30.9 µM; in [5] it was 40.2 µM; in [6], 25.9 µM; in experiment [7], 28.9 µM; in [10] it was 47.4 µM. Also, the values for the TGI in experiment [8] and in [9] were 62.3 µM and 28.8 µM, respectively.
Turning to `CC(=O)N[C@@H](Cc1ccc(O)cn1)C(=O)NCc1cccc(Cl)c1`, the TGI in experiment [1], in experiment [2], in experiment [4], in experiment [5], in experiment [6] and in [7] was greater than 100 µM in each case. For the same molecule, the TGI in [10], in [8] and in experiment [9] was greater than 100 µM in each case.
Regarding `C=C(CC[C@@H](C)[C@H]1CC[C@@]2(C)C3=C(CC[C@]12C)[C@@]1(C)CC[C@H](O)[C@@H](C)C1CC3)C(C)C` (stereo partly drawn), the TGI in experiment [1] is 1.9 µM; in experiment [2], 2.61 µM; in [3] it was 2.54 µM; in experiment [4] it was 3.11 µM; in experiment [6] it was 2.07 µM; in [7], 8.32 µM. The TGI was 2.49 µM in [8] and 2.5 µM in experiment [9].
`c1csc(-c2cc(-c3cccs3)c(-c3ccsc3)s2)c1`: the TGI in experiment [1], in [2], in experiment [4], in experiment [5], in [6] and in experiment [7] was greater than 100 µM in each case. Also, the TGI in [10], in [8] and in experiment [9] was greater than 100 µM each time.
For the molecule `O=C(O)[C@@H]1CSCN1C(=O)[C@@H]1CCC(=S)N1`, the TGI in [1], in experiment [5], in [6], in [7], in experiment [10] and in experiment [8] was greater than 100 µM each time. Besides, the TGI in experiment [9] was greater than 100 µM.
